Data on four compounds can be found in publication PMC9495262, “In Vitro Antiparasitic Activities of Monovalent Ionophore Compounds for Human and Canine Leishmaniases” (Animals : an Open Access Journal from MDPI, 2022).

In series [1] the test system is L. infantum promastigotes. In words: Leishmania promastigote viability assay (MTT), L. infantum. Particulars: mean ± SD of three experiments in duplicate. It counts as cell-based. How it is done:
(§1) Promastigote stages of L. infantum strain (MHOM/TN/80/IPT1) (WHO international reference strain, kindly provided by Dr. M. Gramiccia and Dr. T. Di Muccio, ISS, Roma, Italy), and clinical isolates of L. tropica (MHOM/SY/2012/ISS3130) and L. braziliensis (MHOM/PE/2006/ISS2848) (kindly provided by Dr. R. Grande, Sacco Hospital, Milan, Italy), were cultured in Schneider’s Drosophila medium (Lonza) supplemented with 2 mM L-glutamine and 10% heat-inactivated FBS (HyClone) at 24 °C.
(§2) To estimate the 50% inhibitory concentration (IC50) of compounds on both cells and Leishmania promastigotes, the MTT (3-[4,5-dimethylthiazol-2-yl]-2,5-diphenyltetrazolium bromide) assay was used with minor modifications. Briefly, monensin and nigericin were dissolved in ethanol (10 mg/mL), and salinomycin and amphotericin B in DMSO (10 mg/mL). All compounds were then diluted with medium to achieve the required concentrations (final DMSO or ethanol concentration <1%, non-toxic to the parasite or cells). The complete medium used for the antileishmanial activity assay was RPMI 1640 (EuroClone) supplemented with 10% heat-inactivated FBS (EuroClone), 20 mM HEPES, and 2 mM L -glutamine. Drugs were added to 96-well round-bottom microplates and seven serial dilutions were performed. Amphotericin B was used as the reference anti-Leishmania drug. Subsequently, 100 μL of the parasite suspension (5 × 10^6 parasites/mL) was dispensed into the plates. After 72h of incubation at 24 °C, 20 μL of MTT solution (5 mg/mL in PBS) was added into each well. After 3 h in the dark, the plates were centrifuged, the supernatants discarded, and the formazan crystals in the pellet dissolved in 100 μL of lysing buffer (20% w/v of a solution of SDS -Merck-, and 40% of N,N-dimethylformamide -Merck- in H2O).
(§3) For cell cytotoxicity experiments, 100 μL (5 × 10 ^5 cells/mL) of THP-1 cells were plated in 96-well flat-bottom microplates and treated with 0.1 µM phorbol myristate acetate (PMA, Merck, Kenilworth, NJ, USA) for 72 h to achieve differentiation into macrophages. Cells were then treated with different drug concentrations (60–0.4 µM). After 72 h, 20 μL of the MTT solution was added into each well. After 3 h in the dark, the supernatants were discarded and the formazan crystals dissolved in 100 μL of the same lysing buffer described above. The absorbance was then measured spectrophotometrically at 550 nm (reference wavelength 650 nm). The results are expressed as IC50, which is the dose of compound necessary to inhibit parasite and cell growth by 50%. The IC50 values were extrapolated from nonlinear regression analysis of the concentration–response curve using the software Gen5 1.10 provided with the Synergy 4 (BioTek, Winooski, VT, USA) reader. Data are the mean ± standard deviation of individual experiments performed in duplicate.

Series [2] concerns L. braziliensis promastigotes. In words: Leishmania promastigote viability assay (MTT), L. braziliensis. The series is classed as cell-based. Particulars: mean ± SD of three experiments in duplicate. How it is done: as §1, §2, §3
For series [3], the system named is all Leishmania spp. promastigotes. Briefly: Promastigote viability assay, all Leishmania species tested (summary statements). It counts as cell-based. As to conditions: read-out: IC50 against all Leishmania spp. promastigotes tested. How it is done: as §1
as §2, with “After 3 h in the dark, the plates were centrifuged, the supernatants discarded, and the formazan crystals in the pellet dissolved in 100 μL of lysing buffer (20% w/v of a solution of SDS -Merck-, and 40% of N,N-dimethylformamide -Merck- in H2O).” left out
For cell cytotoxicity experiments, 100 μL (5 × 10 ^5 cells/mL) of THP-1 cells were plated in 96-well flat-bottom microplates and treated with 0.1 µM phorbol myristate acetate (PMA, Merck, Kenilworth, NJ, USA) for 72 h to achieve differentiation into macrophages. […] The absorbance was then measured spectrophotometrically at 550 nm (reference wavelength 650 nm). […] The IC50 values were extrapolated from nonlinear regression analysis of the concentration–response curve using the software Gen5 1.10 provided with the Synergy 4 (BioTek, Winooski, VT, USA) reader. […]

Another series is described as follows: in vitro. It counts as cell-based. Particulars: human. How it is done:
as §3
Non-infected human macrophages (PMA-differentiated THP-1, dTHP-1) and human dermal fibroblasts (HDF) were incubated in the presence of different concentrations of ionophores to determine the nontoxic concentration for mammalian cells.

The next series relates to L. tropica promastigotes. Briefly: Leishmania promastigote viability assay (MTT), L. tropica. Particulars: mean ± SD of three experiments in duplicate. It counts as cell-based. How it is done:
as §1, §2, §3

In series [4] the test system is L. infantum intracellular amastigotes. In words: Intracellular amastigote susceptibility assay in human dTHP-1 (Giemsa counting). The series is classed as cell-based, Leishmania infantum. As to conditions: for IC50: Leishmania infantum, read-out: Amastigotes IC50; for SI (Selectivity index = IC50 dTHP-1/IC50 amastigotes): ratio of cytotoxicity on dTHP-1 to activity on L. infantum amastigotes. How it is done:
For Leishmania spp. infections, 100 μL of THP-1 cells (5 × 10^5 cells/mL) or canine macrophages (2 × 10^6 cells/mL) were plated in 16-chamber Lab-Tek culture slides (Nunc) and further treated with 0.1 µM of PMA for 72 h to achieve differentiation into macrophages. Cells were then washed with PBS and infected with stationary phase L. infantum promastigotes at a macrophage:promastigote ratio of 1:10. After 24 h, cell monolayers were extensively washed with PBS to remove non-internalized promastigotes and observed under an inverted light microscope to evaluate both the cellular size and the cellular morphology. Infected cells were then incubated in the presence of test compounds for 72 h. Infected and/or treated cells were then fixed with 100% methanol and stained with Giemsa at room temperature. The percentage of infected macrophages in treated and non-treated wells was determined by counting 200–300 macrophages/well under a light microscope. About 10 random microscopic fields/well were observed. The number of infected macrophages in the untreated control samples was considered 100% for calculating the percentage of infection in drug treated samples. IC50 values were then calculated. Data are the mean ± standard deviation of individual experiments performed in triplicate.
Next, human macrophages (dTHP-1) were infected with stationary-phase promastigotes of L. infantum at a cell:promastigote ratio of 1:10 for 24 h, and allowed to differentiate into intracellular parasite forms. After the removal of free promastigotes, the infected macrophages were incubated for 72 h in the presence of the ionophores at different concentrations. A significant reduction in the number of infected macrophages was observed after treatment with all the compounds tested. The inhibition was dose-dependent with IC50s between 1 and 2 µM (Table 3).

Series [5] can be described thus: Cytotoxicity (MTT) on PMA-differentiated THP-1 macrophages. It counts as cell-based. As to conditions: human. How it is done:
THP-1 cells (human acute monocytic leukemia cell line) were maintained in Roswell Park Memorial Institute (RPMI) 1640 medium supplemented with 10% fetal bovine serum (FBS, EuroClone), 50 µM 2-mercaptoethanol, 20 mM HEPES, and 2 mM L-glutamine, at 37 °C in 5% CO2.
as §3

Series [6] deals with L. donovani intracellular amastigotes. Details: method as in PMID 21358812. Particulars: read-out: IC50 against intracellular amastigotes, ex vivo splenic explant model of L. donovani infection; cited from earlier work.
The test system of series [7] is promastigotes of L. donovani. Details: method as in PMID 12864731. As to conditions: previous work; read-out: IC50 against promastigotes of L. donovani; cited from earlier work.
Setting [8] is: Leishmania infantum, MTT assay after 72 h of treatment, read-out: IC50 against L. infantum promastigotes.
The mark [9] stands for this setting: Leishmania braziliensis, MTT assay after 72 h of treatment, read-out: IC50 against L. braziliensis promastigotes.
The mark [10] stands for this setting: L. infantum, L. tropica and L. braziliensis promastigotes, summary statement.
Setting [11] is: Leishmania tropica, MTT assay after 72 h of treatment, read-out: IC50 against L. tropica promastigotes.
[12] abbreviates: L. infantum-infected dTHP-1 treated for 72 h, Giemsa, percentage of infected cells.
[13] abbreviates: non-infected PMA-differentiated THP-1 macrophages (dTHP-1), non-infected PMA-differentiated THP-1, MTT assay after 72 h of treatment, read-out: CC50 dTHP-1.

Like-named read-outs stand apart in the source and are kept apart here.

A word on the IC50: it is the concentration that gives 50% inhibition. What is called CC50 is the concentration at which the toxic effect on the cells reaches its halfway point. For the compound `CC[C@@]1([C@@H]2O[C@@H]([C@H]3O[C@@](O)(CO)[C@H](C)C[C@@H]3C)C[C@@H]2C)CC[C@H]([C@]2(C)CC[C@]3(C[C@H](O)[C@@H](C)[C@@H]([C@@H](C)[C@@H](OC)[C@H](C)C(=O)O)O3)O2)O1` [Monensin, monensin], the IC50 in series [1] (setting [8]) was 0.63 ± 0.11 µM; in [2] (setting [9]), 0.27 ± 0.13 µM; in [3] (setting [10]) it was under 1 µM; with L. tropica promastigotes (setting [11]), 0.35 ± 0.17 µM; in series [4] (setting [12]), 1.67 ± 0.43 µM; in [6] it was 0.85 µM. For the same compound, the cytotoxic concentration (CC50) at 72 h (in “in vitro”; in [5]) was over 60 µM throughout. Also, in series [4], the “SI (Selectivity index = IC50 dTHP-1/IC50 amastigotes)” value is over 35.9.

`C[C@@H]1[C@H](O)[C@@H](C)/C=C/C=C/C=C/C=C/C=C/C=C/C=C/[C@H](O[C@@H]2O[C@H](C)[C@@H](O)[C@H](N)[C@@H]2O)C[C@@H]2O[C@](O)(C[C@@H](O)C[C@@H](O)[C@H](O)CC[C@@H](O)C[C@@H](O)CC(=O)O[C@H]1C)C[C@H](O)[C@H]2C(=O)O` [Amphotericin B]: the IC50 in [1] (setting [8]) came to 0.12 ± 0.02 µM; in [2] (setting [9]), 0.08 ± 0.02 µM; with L. tropica promastigotes (setting [11]), 0.1 ± 0.02 µM; in series [4] (setting [12]), 0.18 ± 0.03 µM. Besides, the “SI (Selectivity index = IC50 dTHP-1/IC50 amastigotes)” value in [4] is over 111.1. Besides, the 50% cytotoxic concentration (CC50) at 72 h in series [5] (setting [13]) was over 20 µM.

Consider `CC[C@@H](C(=O)[C@@H](C)[C@@H](O)[C@H](C)[C@@H]1O[C@@H]([C@@H](CC)C(=O)O)CC[C@@H]1C)[C@H]1O[C@]2(C=C[C@@H](O)[C@]3(CC[C@@](C)([C@H]4CC[C@](O)(CC)[C@H](C)O4)O3)O2)[C@H](C)C[C@@H]1C` [Salinomycin, salinomycin], for which the half-inhibitory concentration (IC50) in [7] was about 1.7 µM; in series [1] (Leishmania infantum, 72 h, read-out: IC50 against L. infantum promastigotes, MTT assay after 72 h of treatment) it was about 8 µM; in series [1] (read-out: IC50 against L. infantum promastigotes, MTT assay after 72 h of treatment) it was 7.98 ± 0.64 µM; in [2] (Leishmania braziliensis, 72 h, read-out: IC50 against L. braziliensis promastigotes, MTT assay after 72 h of treatment) it was about 5 µM; in series [2] (read-out: IC50 against L. braziliensis promastigotes, MTT assay after 72 h of treatment) it was 5.08 ± 1.74 µM; in series [3] it was over 4 µM. Moreover, the half-inhibitory concentration (IC50) is about 5 µM in the series with L. tropica promastigotes (Leishmania tropica, 72 h, read-out: IC50 against L. tropica promastigotes, MTT assay after 72 h of treatment); 4.53 ± 0.6 µM in the series on L. tropica promastigotes (read-out: IC50 against L. tropica promastigotes, MTT assay after 72 h of treatment); 1.93 ± 0.1 µM in series [4] (72 h). For the same compound, the CC50 at 72 h in the series “in vitro” was over 60 µM; in series [5] (setting [13]), 32.1 ± 5.3 µM. In addition, the “SI (Selectivity index = IC50 dTHP-1/IC50 amastigotes)” value in [4] stood at 16.6.

In the case of `CO[C@@H]1C[C@@H](C[C@H]2CC[C@H](C)[C@H]([C@@H](C)C(=O)O)O2)O[C@]2(O[C@](C)([C@H]3CC[C@@](C)([C@@H]4O[C@@H]([C@H]5O[C@@](O)(CO)[C@H](C)C[C@@H]5C)C[C@@H]4C)O3)C[C@H]2C)[C@@H]1C` [Nigericin, nigericin], the half-maximal inhibitory concentration (IC50) was 0.37 ± 0.04 µM in series [1] (setting [8]); 0.78 ± 0.08 µM in [2] (setting [9]); under 1 µM in [3] (setting [10]); 0.23 ± 0.05 µM in the series on L. tropica promastigotes (setting [11]); 1.79 ± 0.83 µM in series [4] (setting [12]). The cytotoxic concentration (CC50) at 72 h (in the series “in vitro”; in series [5]) was over 60 µM each time. In addition, the “SI (Selectivity index = IC50 dTHP-1/IC50 amastigotes)” value in [4] was over 33.5.
